Test results as given in patent US9896441B2 (Lycera Corporation, priority 2014, dated 2018).

Experiments:
RORγ-LBD = target: T1, RORγ-LBD (Homo sapiens, UniProt P51449); assay: RORγ-Ligand Binding Domain (LBD) TR-FRET Assay; type: biochemical; settings: RORγ-LBD TR-FRET assay; for TR-FRET Assay Max Response: maximum response;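 for TR-FRET Assay Max Response: 665/615 nm signal ratio set to 100 without ursolic acid or test compound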
T1 construct: made in house; host or cells: SF9 cells (baculovirus); used as diluted lysate
T1 sequence (P51449 269-508 limits assumed): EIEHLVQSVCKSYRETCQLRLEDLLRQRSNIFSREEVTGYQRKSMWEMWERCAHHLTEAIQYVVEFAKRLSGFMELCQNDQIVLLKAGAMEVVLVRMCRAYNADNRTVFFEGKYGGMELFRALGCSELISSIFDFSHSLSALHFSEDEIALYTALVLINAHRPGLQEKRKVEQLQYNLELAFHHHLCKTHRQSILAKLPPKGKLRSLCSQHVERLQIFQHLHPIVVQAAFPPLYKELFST
Summary of the method: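 TR-FRET read-out using a biotin-tagged SRC1 coactivator LXXLL peptide (200 nM final), with the antagonist ursolic acid present at 2 μM final. Receptor is His-tagged LBD expressed in SF9 cells, ~3 nM final in pH 7.0 Tris/KCl/EDTA/DTT/BSA buffer; compounds in 1% DMSO final.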

Gal4-RORγ-LBD = target: T2, Gal4-RORγ-LBD (Homo sapiens, UniProt P51449); assay: Gal4-RORγ Luciferase Reporter Assay in HEK-293T Cells; type: cell-based; settings: HEK-293 cells, luciferase reporter, in presence of ursolic acid; for Gal4-RORγ Assay Max Response: maximum response
T2 construct: expressed in transfected cells
T2 sequence (P51449 269-508 limits assumed): T1 sequence (P51449 269-508 limits assumed)
Summary of the method: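 Max Response was taken as the upper plateau of a 4-parameter logistic fit of luciferase signal, normalized to 100 for wells without ursolic acid or compound. Transiently Gal4-RORγ-LBD/Gal4-luc transfected HEK-293 cells carrying […] ursolic acid were incubated with test compounds (0.2% DMSO) overnight at 37 °C and read with One-Glo.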

| Structure (SMILES) | EC50 (RORγ-LBD) | TR-FRET Assay Max Response (RORγ-LBD) | EC50 (Gal4-RORγ-LBD) | Gal4-RORγ Assay Max Response (Gal4-RORγ-LBD) |
| --- | --- | --- | --- | --- |
| C/C(=C\c1ccc2c(c1)N(S(=O)(=O)c1cccc(C(F)(F)F)c1)C[C@H](CCN1CCC(C(=O)O)CC1)O2)c1c(F)cccc1Cl [Example 122, (S,E)-1-(2-(6-(2-(2-Chloro-6-fluorophenyl)prop-1-en-1-yl)-4-((3-(trifluoromethyl)phenyl)sulfonyl)-3,4-dihydro-2H-benzo[b][1,4]oxazin-2-yl)ethyl)piperidine-4-carboxylic acid] | < 500 nM | *** (a value in the range of greater than 150 to 200) | < 500 nM | ** (a value in the range of greater than 90 to 150) |
| C/C(=C\c1ccc2c(c1)N(S(=O)(=O)c1cccc(C(F)(F)F)c1)C[C@H](CCCN1CCC(C(=O)O)CC1)O2)c1c(F)cccc1Cl [Example 123, (S,E)-1-(3-(6-(2-(2-Chloro-6-fluorophenyl)prop-1-en-1-yl)-4-((3-(trifluoromethyl)phenyl)sulfonyl)-3,4-dihydro-2H-benzo[b][1,4]oxazin-2-yl)propyl)piperidine-4-carboxylic acid] | < 500 nM | ** (a value in the range of greater than 90 to 150) | 500 to 5000 nM | ** (a value in the range of greater than 90 to 150) |
| C/C(=C\c1ccc2c(c1)N(S(=O)(=O)c1cccc(C(F)(F)F)c1)C[C@H](CCN1CCC[C@H]1C(=O)O)O2)c1c(F)cccc1Cl [Example 124, (2-((S)-6-((E)-2-(2-Chloro-6-fluorophenyl)prop-1-en-1-yl)-4-((3-(trifluoromethyl)phenyl)sulfonyl)-3,4-dihydro-2H-benzo[b][1,4]oxazin-2-yl)ethyl)-L-proline] | < 500 nM | *** (a value in the range of greater than 150 to 200) | 500 to 5000 nM | ** (a value in the range of greater than 90 to 150) |
| C/C(=C\c1ccc2c(c1)N(S(=O)(=O)c1cccc(C(F)(F)F)c1)C[C@H](CO)O2)c1c(F)cccc1Cl [Example 125, (R,E)-(6-(2-(2-Chloro-6-fluorophenyl)prop-1-en-1-yl)-4-((3-(trifluoromethyl)phenyl)sulfonyl)-3,4-dihydro-2-h-benzo[b][1,4]oxazin-2-yl)methanol] | < 500 nM | *** (a value in the range of greater than 150 to 200) | < 500 nM | ** (a value in the range of greater than 90 to 150) |
| C/C(=C\c1ccc2c(c1)N(S(=O)(=O)c1cccc(C(F)(F)F)c1)C[C@H](CCC(=O)N1CCCC1)O2)c1c(F)cccc1Cl [Example 126, (S,E)-3-(6-(2-(2-Chloro-6-fluorophenyl)prop-1-en-1-yl)-4-((3-(trifluoromethyl)phenyl)sulfonyl)-3,4-dihydro-2H-benzo[b][1,4]oxazin-2-yl)-1-(pyrrolidin-1-yl)propan-1-one] | < 500 nM | ** (a value in the range of greater than 90 to 150) | < 500 nM | ** (a value in the range of greater than 90 to 150) |
| C/C(=C\c1ccc2c(c1)N(S(=O)(=O)c1cccc(C(F)(F)F)c1)C[C@H](CCC(=O)N1CCC(C(N)=O)CC1)O2)c1c(F)cccc1Cl [Example 127A, (S,E)-1-(3-(6-(2-(2-chloro-6-fluoro-phenyl)-prop-1-en-1-yl)-4-((3-(trifuoromethyl)phenyl)sulfonyl)-3,4-dihydro-2H-benzo[b][1,4]oxazin-2-yl)propanoyl)piperidine-4-carboxamide] | < 500 nM | **** (a value greater than 200) | < 500 nM | ** (a value in the range of greater than 90 to 150) |
| C/C(=C\c1ccc2c(c1)N(S(=O)(=O)c1cccc(C(F)(F)F)c1)C[C@H](CCC(=O)N1CCOCC1)O2)c1c(F)cccc1Cl [Example 127B, (S,E)-3-(6-(2-(2-chloro-6-fluorophenyl)prop-1-en-1-yl)-4-((3-(trifluoromethyl)phenyl)sulfonyl)-3,4-dihydro-2H-benzo[b][1,4]oxazin-2-yl)-1-morpholino-propan-1-one] | < 500 nM | **** (a value greater than 200) | < 500 nM | ** (a value in the range of greater than 90 to 150) |
| C/C(=C\c1ccc2c(c1)N(S(=O)(=O)c1cccc(C(F)(F)F)c1)C[C@H](CCC(=O)N1CCS(=O)(=O)CC1)O2)c1c(F)cccc1Cl [Example 127C, (S,E)-3-(6-(2-(2-chloro-6-fluorophenyl)prop-1-en-1-yl)-4-((3-(trifluoro-methyl)phenyl)sulfonyl)-3,4-dihydro-2H-benzo[b][1,4]oxazin-2-yl)-1-(1,1-dioxidothio-morpholino)propan-1-one] | < 500 nM | **** (a value greater than 200) | < 500 nM | ** (a value in the range of greater than 90 to 150) |
| C/C(=C\c1ccc2c(c1)N(S(=O)(=O)c1cccc(C(F)(F)F)c1)C[C@H](CCC(=O)N1CC3(COC3)C1)O2)c1c(F)cccc1Cl [Example 127D, (S,E)-3-(6-(2-(2-chloro-6-fluorophenyl)prop-1-en-1-yl)-4-((3-(trifluoro-methyl)phenyl)sulfonyl)-3,4-dihydro-2H-benzo[b][1,4]oxazin-2-yl)-1-(2-oxa-6-azaspiro[3.3]heptan-6-yl)propan-1-one] | < 500 nM | **** (a value greater than 200) | < 500 nM | ** (a value in the range of greater than 90 to 150) |
| C/C(=C\c1ccc2c(c1)N(S(=O)(=O)c1cccc(C(F)(F)F)c1)C[C@H](CCC(=O)N1C[C@@H](C)O[C@@H](C)C1)O2)c1c(F)cccc1Cl [Example 127E, 3-((S)-6-((E)-2-(2-chloro-6-fluorophenyl)prop-1-en-1-yl)-4-((3-(trifluoromethyl)phenyl)sulfonyl)-3,4-dihydro-2H-benzo[b][1,4]oxazin-2-yl)-1-((2S,6R)-2,6-dimethylmorpholino)propan-1-one] | < 500 nM | *** (a value in the range of greater than 150 to 200) | < 500 nM | * (a value in the range of 30 to 90) |
| C/C(=C\c1ccc2c(c1)N(S(=O)(=O)c1cccc(C(F)(F)F)c1)C[C@H](CCC(=O)N1CCNCC1)O2)c1c(F)cccc1Cl [Example 127F, (S,E)-3-(6-(2-(2-chloro-6-fluorophenyl)prop-1-en-1-yl)-4-((3-(trifluoromethyl)phenyl)sulfonyl)-3,4-dihydro-2H-benzo[b][1,4]oxazin-2-yl)-1-(piperazin-1-yl)propan-1-one] | < 500 nM | **** (a value greater than 200) | 500 to 5000 nM | ** (a value in the range of greater than 90 to 150) |
| O=C(CC[C@H]1CN(S(=O)(=O)c2cccc(C(F)(F)F)c2)c2cc(/C=C/c3c(Cl)cccc3C(F)(F)F)ccc2O1)N1CC2(COC2)C1 [Example 127G, (S,E)-3-(6-(2-chloro-6-(trifluoromethyl)styryl)-4-((3-(trifluoromethyl)-phenyl)sulfonyl)-3,4-dihydro-2H-benzo[b][1,4]oxazin-2-yl)-1-(2-oxa-6-azaspiro[3.3]heptan-6-yl)propan-1-one] | < 500 nM | **** (a value greater than 200) | 500 to 5000 nM | * (a value in the range of 30 to 90) |
| C/C(=C\c1ccc2c(c1)N(S(=O)(=O)c1cccc(C(F)(F)F)c1)C[C@H](CCC(=O)N1CCC1)O2)c1c(F)cccc1Cl [Example 127H, (S,E)-1-(azetidin-1-yl)-3-(6-(2-(2-chloro-6-fluorophenyl)prop-1-en-1-yl)-4-((3-(trifluoromethyl)phenyl)sulfonyl)-3,4-dihydro-2H-benzo[b][1,4]oxazin-2-yl)propan-1-one] | < 500 nM | *** (a value in the range of greater than 150 to 200) | < 500 nM | ** (a value in the range of greater than 90 to 150) |
| O=C(CC[C@H]1CN(S(=O)(=O)c2cccc(C(F)(F)F)c2)c2cc(/C=C/c3c(F)cccc3Cl)ccc2O1)N1CC2(COC2)C1 [Example 127I, (S,E)-3-(6-(2-chloro-6-fluorostyryl)-4-((3-(trifluoromethyl)phenyl)sulfonyl)-3,4-dihydro-2H-benzo[b][1,4]oxazin-2-yl)-1-(2-oxa-6-azaspiro[3.3]heptan-6-yl)propan-1-one] | < 500 nM | *** (a value in the range of greater than 150 to 200) | 500 to 5000 nM | ** (a value in the range of greater than 90 to 150) |
